Experiment [1] has as its system RBL-2H3 cells. Briefly: Toluidine blue staining, percentage of degranulation. Format: cell-based, rat. As to the method: SP-stimulated RBL-2H3 cells [plated on poly-L-lysine (33 μg/ml) coated slides (Deckglaser, 21 × 26 mm) into 6-well culture dishes at a cell density of 9 × 10^5 cells per well] were treated and incubated as described above for histamine release assay. After 15 min, the cells were fixed with paraformaldehyde at 4% for 20 min and incubated for 3 min with toluidine blue at 0.01% in 3% acetic acid. Subsequently, a 5 min wash in distilled water and dehydration in increasing alcohols (90%, 100%) were performed. Cells were then clarified by treatment with Xylol for 5 min and finally dried slides were mounted with the DPX histogram upright. The cells were observed using a Leica DMI6000 digital microscope, acquired using the Leica DFC 340FX digital camera connected to the microscope and analyzed using the LAS AF 2.2.0 software. Degranulated RBL-2H3 cells were counted and the percentage of degranulation (based on the number of colorable cells) was calculated.

Experiment [2] relates to RBL-2H3 cells. Briefly: Histamine release assay (ELISA). Format: cell-based, rat. As to the method: (§1) RBL-2H3 cells were plated into 24-well culture dishes at a cell density of 2 × 10^5 cells per well, or into 6-well culture dishes at a cell density of 9 × 10^5 cells per well, for 1 day at 37 °C in 5% CO2 atmosphere. After 1 day, RBL-2H3 cells were stimulated with SP (10 μM) or vehicle (water) and incubated for 15 min at 37 °C in 5% CO2 atmosphere.
SP-stimulated RBL-2H3 cells (2 × 10^5 cells/well) were treated with PEA (10 μM) or vehicle (methanol) for 15 min at 37 °C in 5% CO2 atmosphere. SP-stimulated RBL-2H3 cells were also treated with a CB2 antagonist, AM630 (0.1 μM), in the presence and absence of PEA (10 μM), or JWH133 (0.1 μM) (a CB2 synthetic agonist), and incubated for the indicated time. SP-stimulated RBL-2H3 cells were also treated with 2-AG (0.1 and 1 μM), or co-treated with PEA (0.1 μM) and 2-AG (0.1 μM), and incubated for the indicated time. SP-stimulated RBL-2H3 cells were also co-treated with PEA (10 μM) and OMDM188 (10 μM) (a DAGL inhibitor), and incubated for the indicated time. After 15 min, the supernatants were collected and the amounts of secreted histamine were measured by using a histamine ELISA kit according to the manufacturer’s instructions (Abnova) and by using a reader GENios Pro (Tecan). Data were expressed as nanograms per milliliter of histamine.

Experiment [3] addresses human CB2 receptor (Homo sapiens, UniProt P34972). As to the kind of experiment: cAMP Hunter functional activity assay at the CB2 receptors. Format: cell-based. On the set-up: host or cells: CHO-K1. As to conditions: 2-AG alone, CHO-K1 cells overexpressing human CB2; read-out: IC50, reduction of NKH-477-induced cAMP levels. As to the method:
The cAMP Hunter™ eXpress G protein-coupled receptor (GPCR) assay was performed in Chinese Hamster Ovary (CHO)-Kl cells overexpressing the human CB2 receptor. Gi-coupled cAMP modulation was measured following the manufacturer’s protocol (DiscoverX, Fremont, CA). CHO-K1 cells overexpressing the human CB2 receptor were plated into a 96-well plate (3× 10^4 cells/well) and incubated overnight at 37 °C in 5% CO2 atmosphere. The media were aspirated and replaced with 30 μl of assay buffer. Cells were incubated 30 min at 37 °C with 15 μl of 3× concentration-response solutions of 2-AG (0.01–50 μM), or PEA (10 μM), prepared in presence of cell assay buffer containing a 3× of 25 μM NKH-477 solution (a water-soluble analog of Forskolin) to stimulate adenylate cyclase and enhance basal cAMP levels. We also investigated the effect of PEA on 2-AG receptor activation by co-incubation. Therefore, cells were also incubated 30 min at 37 °C with 2-AG and PEA (10 μM) in the presence of NKH-477 to stimulate adenylate cyclase and enhance cAMP levels. […] Relative luminescence units (RLU) were measured by using a GloMax Multi Detection System (Promega Italia). […] The percentage of response was calculated by using the following formula: % RESPONSE = 100% × (1-(RLU of test compound-RLU of NKH-477 positive control)/(RLU of vehicle-RLU of NKH-477 positive control).

The test system of experiment [4] is RBL-2H3 cells. As to the kind of experiment: Toluidine blue staining, percentage of degranulation. Particulars: compound alone 0.1 μM, in the absence of SP (data not shown). Format: cell-based, rat.
Experiment [5] relates to RBL-2H3 cells. As to the kind of experiment: LC-APCI-MS measurement of endogenous AEA, 2-AG and PEA levels. Format: cell-based, rat. Particulars: for decrease of endogenous levels of 2-AG: OMDM188 10 μM in the presence of PEA 10 μM. The protocol: RBL-2H3 cells (9 × 10^5 cells/well) were stimulated with SP (10 μM) and treated with PEA (10 μM) in the presence and absence of OMDM188 (10 μM), for 15 min at 37 °C in 5% CO2 atmosphere. After 15 min, cells and supernatants were collected and homogenized in a solution of CHCl3/CH3OH/Tris-HCl 50 mM pH 7.4 (2:1:1, v/v) containing 10 pmol of [^2H]8-AEA, [^2H]5-2-AG and [^2H]4-PEA as internal standards. The lipid-containing organic phase was dried down, weighed and pre-purified by open-bed chromatography on silica gel. Fractions obtained by eluting the column with a solution of CHCl3/CH3OH (90:10 by vol.) were analyzed by Liquid Chromatography-Atmospheric Pressure Chemical Ionization-Mass Spectrometry (LC-APCI-MS) using a Shimadzu (Shimadzu, Kyoto, Japan) HPLC apparatus (LC-10ADVP) coupled to a Shimadzu (LCMS-2020) quadrupole MS via a Shimadzu APCI interface. LC-APCI-MS analyses of 2-AG and PEA were carried out in the selected ion monitoring mode, using m/z values of 356 and 348 (molecular ions + 1 for deuterated and undeuterated AEA), 384.35 and 379.35 (molecular ions + 1 for deuterated and undeuterated 2-AG), and 304 and 300 (molecular ions + 1 for deuterated and undeuterated PEA). AEA, 2-AG and PEA levels were calculated on the basis of their area ratio with the internal deuterated standard signal areas, and their amounts (pmol) were normalized per mg of lipid extract.

The subject of experiment [6] is RBL-2H3 cells. As to the kind of experiment: β-Hexosaminidase release assay. Format: cell-based, rat. Particulars: substance alone 10 μM, 15 min, vs vehicle-treated cells. The protocol: as §1
SP-stimulated RBL-2H3 cells (2 × 10^5 cells/well) were treated with PEA (0.1, 0.5, 1, and 10 μM) or vehicle (methanol, max 0.1%) for 15 min at 37 °C in 5% CO2 atmosphere. After 15 min, the supernatants (15 μl) were transferred to 96-well plates and incubated with 60 μl of substrate (1 mM p-nitrophenyl-N-acetyl-β-D-glucosaminide in citrate 0.05 M, pH 4.5) for 1 h at 37 °C. To determine the total amount of released β-hexosaminidase, the cells were lysed with 0.1% Triton X-100 and incubated with substrate using the same procedure as for the determination of the activity in the supernatants. The reaction was stopped by adding 150 μl of 0.1 M sodium bicarbonate buffer (pH 10.0), and the reaction product was monitored by measuring the optical density (OD) at 405 nm by using a reader GENios Pro (Tecan). The results were expressed as % of the total β-hexosaminidase content of the cells determined by cell lysis with 0.1% Triton X-100, and calculated by using the following formula: % degranulation = [ODsupernatant/(ODsupernatant + ODtriton x−100)] × 100.

Experiment [7] has as its system RBL-2H3 cells. Briefly: Quantitative real-time PCR of PEA/2-AG receptors and metabolic enzymes. As to conditions: cells stimulated 15 min with SP 10 μM or PEA 10 μM or both, vs unstimulated. In kind it is cell-based, rat. From the text: The mRNA expression of PEA target genes (Cnr1, Cnr2, Trpv1, Ppara, and Gpr55), as well as PEA and 2-AG biosynthetic (N-acyl phosphatidylethanolamine-specific phospholipase D, Napepld, Dagla and Daglb) and catabolic enzyme genes (fatty acid amide hydrolase, Faah; N-acylethanolamine-hydrolyzing acid amidase, Naaa; and monoacylglycerol lipase, Mgl), was studied by comparison of transcriptional expression in unstimulated RBL-2H3 cells (plated on 100 mm diameter Petri dishes) vs. the expression of these targets and enzymes in RBL-2H3 cells treated with PEA (10 μM), or stimulated with SP (10 μM) in the presence and absence of PEA (10 μM), for 15 min at 37 °C in 5% CO2 atmosphere. Total RNA was purified, quantified and reverse transcribed as previously reported. For each target, all mRNA sequences were aligned and common primers were designed (Table 1). Quantitative real-time PCR was performed by an iCycler-iQ5 in a 20 μl reaction mixture using 20 ng of cDNA. Assays were performed in quadruplicate (maximum ΔCt of replicate samples < 0.5). Optimized primers for SYBR-green analysis and optimum annealing temperatures were designed by the Allele-Id software version 7.0 (Biosoft International) and were synthesized (HPLC-purification grade) by MWG-Biotech. […] Results were expressed as fold expression compared with a reference condition (2^^−∆∆ct formula).

Setting [8] is: SP (10 μM)-stimulated cells, compound 0.1 μM, 15 min, vs SP + vehicle.
Setting [9] is: SP (10 μM)-stimulated cells, compound 1 μM, 15 min, vs SP + vehicle.
Setting [10] is: compound alone 0.1 μM, in the absence of SP (data not shown).
The mark [11] stands for this setting: SP-stimulated cells treated with OMDM188 10 μM in the presence of PEA 10 μM, vs SP + vehicle.

Sequence of human CB2 receptor (P34972 whole entry): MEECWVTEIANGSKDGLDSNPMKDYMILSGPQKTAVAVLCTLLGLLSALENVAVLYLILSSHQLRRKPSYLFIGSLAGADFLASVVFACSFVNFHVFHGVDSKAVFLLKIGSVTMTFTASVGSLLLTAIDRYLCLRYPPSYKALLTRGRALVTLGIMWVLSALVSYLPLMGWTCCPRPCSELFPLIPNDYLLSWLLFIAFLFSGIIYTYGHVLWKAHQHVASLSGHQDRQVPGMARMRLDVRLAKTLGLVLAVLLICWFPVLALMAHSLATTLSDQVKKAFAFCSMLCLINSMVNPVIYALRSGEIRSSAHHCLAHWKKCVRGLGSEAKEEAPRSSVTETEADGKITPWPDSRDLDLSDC

Take `CCCCC/C=C\C/C=C\C/C=C\C/C=C\CCCC(=O)OC(CO)CO` [2-AG, 2-arachidonoylglycerol]: in experiment [1] (setting [8]), the “number of degranulated cells” value was “comparable”. In experiment [1] (setting [9]), the degranulation entry is listed as “able to reduce”. In addition, the histamine release entry in experiment [2] (setting [8]) was “comparable”; in experiment [2] (setting [9]) it was “able to reduce”. Besides, the IC50 in experiment [3] stood at 590 ± 160 nM.
As to `COc1ccc(C(=O)c2c(C)n(CCN3CCOCC3)c3cc(I)ccc23)cc1` [AM630], the “number of degranulated cells” value in experiment [1] (setting [8]) was “comparable”. In addition, the histamine release entry is on record as “comparable” in experiment [2] (setting [8]) and “No effect” in experiment [2] (setting [10]).
Turning to `CCCC(C)(C)c1ccc2c(c1)OC(C)(C)[C@@H]1CC=C(C)C[C@@H]21` [JWH133], in experiment [4], the degranulation result is given as “no effect”. The “number of degranulated cells” value was “reduced the number of SP-degranulated RBL-2H3 cells” in experiment [1] (setting [8]); “comparable” in experiment [1] (SP-stimulated cells co-treated with JWH133 0.1 μM and AM630 0.1 μM, vs SP + vehicle or SP + AM630). Further, the histamine release entry in experiment [2] (setting [8]) is given as “inhibited the release of histamine”; in experiment [2] (SP-stimulated cells co-treated with JWH133 0.1 μM and AM630 0.1 μM, vs SP + vehicle), “comparable”; in experiment [2] (setting [10]), “No effect”.
Regarding `CCCCCCCCCCC[C@@H](C[C@@H]1OC(=O)[C@H]1CCCCCC)OC(=O)[C@@H](NC=O)[C@@H](C)CC` [OMDM188], the “decrease of endogenous levels of 2-AG” value in experiment [5] (SP-stimulated cells, compared to SP + PEA only) is on record as 2.5 fold; in experiment [5] (unstimulated cells, compared to PEA 10 μM alone), 2.4 fold. Besides, the “number of degranulated cells” value in experiment [1] (setting [11]) is reported as “comparable”. The histamine release result in experiment [2] (setting [11]) is on record as “comparable”.
For substance P [SP], the β-hexosaminidase release result in experiment [6] was “significantly released”. In addition, the “endogenous levels of AEA, 2-AG, and PEA” value in experiment [5] (SP 10 μM for 15 min, vs vehicle) is “did not change”. In experiment [7], the “mRNA expression of Cnr2, Napepld, Naaa, Daglb, Faah and Mgl” value is “no statistically significant change”. For the same compound, the “number of degranulated cells” value in experiment [1] (substance alone 10 μM, 15 min, vs vehicle) was “increased the number of degranulated RBL-2H3 cells”. In experiment [2] (substance alone 10 μM, 15 min, vs vehicle-treated cells), the histamine release result is listed as “significantly released”.

These data come from paper PMC6933707, “Palmitoylethanolamide counteracts substance P-induced mast cell activation in vitro by stimulating diacylglycerol lipase activity” (Journal of Neuroinflammation, 2019).
